{"source": "patent US9301954B2", "about": "“Pharmaceutical composition for the prevention or treatment of osteoarthritis containing rebamipide as an active ingredient” (HANLIM PHARMACEUTICAL CO., LTD, priority 2010, dated 2016)", "system": "MIA-induced osteoarthritis rats", "test": "Therapeutic efficacy of oral rebamipide in monosodium iodoacetate (MIA)-induced osteoarthritis in rats", "format": "in vivo, Wistar rats", "procedure": "About 5 week old male Wistar rats were used. Monosodium iodoacetate (MIA) was dissolved in a physiological saline; and then administered to the rats in the dose of 4 mg/50 μl via the right knee thereof, so as to induce osteoarthritis. The rats were divided into 3 groups, each having 5 rats. The first group (non-arthritis) was a non-treated group, i.e., a normal control group. The second group (MIA) was an osteoarthritis-induced group through the MIA administration. The rats of the third group (MIA+Rebamipide) were administered with the MIA to induce osteoarthritis; and then orally administered with rebamipide every day for 7 days. At the 7th day after the MIA induction, the femurs and the tibias were isolated from the rats of each group and then observed under a dissecting microscope. After H&E staining, the knee joint sites were observed through a low-magnification lens. In the results, the nucleus is shown in blue-violet color and the cytoplasm is shown in pink color. […] The knee joints were stained with Safranin O, which can show losses of the cartilage proteoglycans. The tartrate-resistant acid phosphatase (TRAP) staining for osteoclasts, was performed at 37° C. for 30 minutes, using a leukocyte acid phosphatase kit (Sigma 387-A, USA). The TRAP-positive cells were shown in red-violet color. The multinucleated cells (having above 3 nuclei) were considered as TRAP-positive cells (osteoclasts), which were counted under an optical microscope.", "note": "“Also recorded” adds a separate entry of the source.", "data": [{"molecule": "O=C(NC(Cc1cc(=O)[nH]c2ccccc12)C(=O)O)c1ccc(Cl)cc1", "note": "(stereo not drawn) [rebamipide]", "values": [{"measurement": "Inflammation by H&E staining", "setting": "MIA+Rebamipide group in comparison with the MIA group, oral, 7 days", "value": "favorably changed"}, {"measurement": "Cartilage damage by histological analyses (TRAP, safranin O, H&E staining)", "setting": "MIA+Rebamipide group vs MIA group, oral, 7 days", "value": "remained intact without destruction"}, {"measurement": "Safranin O staining of femoral cartilage site (proteoglycan loss, surface)", "setting": "MIA+Rebamipide group, oral, 7 days, similar to the non-arthritis group", "value": "smooth and shown in strong orange-red color"}, {"measurement": "Cartilage damage of isolated femurs and tibias observed under a dissecting microscope", "setting": "male Wistar rats, MIA 4 mg/50 μl via right knee, rebamipide orally every day for 7 days, 7th day after MIA induction", "value": "significantly inhibited; also recorded: little damages in the cartilage sites"}, {"measurement": "Number of osteoclasts in the tibial subchondral bone via TRAP staining", "setting": "rebamipide group in comparison with the MIA group, oral, 7 days", "value": "significantly reduced"}, {"measurement": "Histology grade evaluation (standards of Table 1, FIG. 3): cartilage surface and safranin O loss", "setting": "rebamipide-treated group, oral, 7 days", "value": "only a little loss of safranin O in the cartilage site"}]}]}
